In this experiment the test system is broiler chickens with combined chronic mycotoxicosis (aflatoxin B1, ochratoxin A, T-2-mycotoxin, fumonisin B1 in feed). On the set-up: species or system broiler chickens of the Cobb-Avian-48 cross. The following applies: in vivo.

On to `OC[C@H]1O[C@@H](O[C@@H]2[C@@H](CO)OC(O)(CO)[C@H]2O)[C@H](O)[C@@H](O)[C@H]1O` (mixture of isomers) [lactulose], for which the “recovery of average daily weight gain per kilogram of component in the compound feed” value is 25%.
